Results on two compounds are retold here after US11970542B2, “Bispecific antibodies specific for treating hematological malignancies” (FRED HUTCHINSON CANCER CENTER, priority 2017, dated 2024).

SMILES strings stand for the structures.

Series [1] deals with surface BCMA on MM cell lines (RPMI8226, U266B1, MM1.R, H929) and primary MM samples. In words: Effect of GSI on BCMA expression, flow cytometry. The class given is cell-based, human. The source says: FIGS. 11A-11D. Dose dependent effect of the gamma secretase inhibitor, R04929097, on BCMA expression on 4 MM cell lines (11A, 11B) and 7 primary MM samples (11C, 11D). (11A) Surface BCMA expression by MM.1R cells cultured with the indicated concentrations of R04929097; staining with anti-BCMA antibody (black lines) compared to isotype control (grey line). (11B) Fold-change in surface BCMA expression by MM cell lines when cultured with the indicated concentrations of R04929097; fold change indicated relative to untreated MM cells of the same line. (11C) Surface BCMA expression by primary patient MM cells cultured with the indicated concentrations of R04929097. Staining was as described in regard to FIG. 11A. (11D) Fold change in BCMA on primary myeloma cells (n=7) cultured with vary amounts of GSI for […]. Primary and cell lines were cultured at 0.5×10^6 cells/mL. Fold change in BCMA is defined as Treated (MFIBCMA-MFIiso)/Control (MFIBCMA-MFIiso). Data is representative of 3 independent experiments with T cells derived from different donors.
The effect of GSI on BCMA expression was evaluated by incubating four MM cell lines (RPMI8226, U266B1, MM1.R, and H929) and primary MM samples in media containing 0 (DMSO), 0.01, 0.1, and 1.0 μM of GSI and measuring surface BCMA at 5 hr. […] These concentrations are 3-30 fold below the serum levels that are achieved by well tolerated oral dosing regimens of GSI in phase 1 trials in cancer patients.
Background: Flow cytometry measures light scatter and fluorescence of single cells or particles in a stream.

The test system of series [2] is surface BCMA on three multiple myeloma cells lines. In words: Antibody Binding Capacity assay (QuantiBrite), BCMA molecules. The class given is cell-based, human. The following applies: 5 μM, 17 hours incubation. The procedure: FIG. 13. Antibody Binding Capacity assay (QuantiBrite, Cat. No. 340495, BD Biosciences) was used according to manufacturer instructions to measure the absolute number of BCMA molecules on the self-surface and accessible to antibody binding following 17 hours incubation in the presence or absence of 5 μM gamma secretase inhibitor (R04929097) on three multiple myeloma cells lines.

Series [3] in a line: Blood clearance time course of BCMA bispecific with or without GSI. More on the design: species or system mice. The settings on record: mouse, in vivo. The text has this: FIG. 15. To ensure our clearing agent was able to effectively clear unbound agent from the blood stream, we conducted a time course experiment to test the impact of the clearing agent on the BCMA bispecific in the presence or absence of GSI. The percent of the injected dose (% ID) was monitored in the blood during a time course experiment by measuring the relative amount of Yttrium^90 in blood samples obtained from mice.

In series [4] the test system is surface CD38 on three multiple myeloma cells lines. In words: Antibody Binding Capacity assay (QuantiBrite), CD38 molecules. The class given is cell-based, human. The following applies: 65-72 hours treatment. As to the method: FIG. 14. Antibody Binding Capacity assay (QuantiBrite, BD Biosciences) was used according to manufacturer instructions to measure the absolute number of CD38 molecules on the self-surface and accessible to antibody binding following 65-72 hours treatment of ATRA on three multiple myeloma cells lines.

Series [5] relates to CD38 receptor expression in MM cell lines (U266, H929 and L363). The series is described as follows: ATRA effect on CD38 receptor expression in vitro. The class given is cell-based, human. The source says: FIG. 12. […] These studies generated data to refine the process of manipulating CD38 receptor density for the purpose of increasing targeted delivery of radiolabeled DOTA-biotin after CD38 tumor cell pretargeting.

For the compound `CC(C)(C(=O)NCC(F)(F)C(F)(F)F)C(=O)N[C@@H]1C(=O)Nc2ccccc2-c2ccccc21` [R04929097], the “effect on cell viability” value in series [1] (0.01, 0.1, and 1.0 μM, 5 hr) is on record as “did not affect cell viability”. Also, in series [1] (0.01-1.0 μM tested, 5 hr), the “concentration of maximal increase in MFI of BCMA staining” value was 1.0 µM. For the same compound, in series [1] (0.1 and 1.0 μM), the “soluble BCMA levels” value is given as “decline in soluble BCMA levels”. In addition, the “change in MFI of BCMA staining” value in series [1] (all 4 cell lines and primary MM cells, 5 hr) is on record as “marked increase”. In addition, in series [1] (time course), the “time to upregulation of BCMA after GSI exposure” value is at most 1 h. The “number of BCMA molecules on the cell surface” value in series [2] is listed as “upregulates surface BCMA target expression”. The “blood clearance of BCMA bispecific fusion in combination with GSI” value in series [3] was “further facilitated blood clearance”.
`CC1=C(/C=C/C(C)=C/C=C/C(C)=C/C(=O)O)C(C)(C)CCC1` [ATRA, all-trans retinoic acid]: the “number of CD38 molecules on the cell surface” value in series [4] was “upregulates surface CD38 target expression”. In addition, the CD38 receptor expression entry in series [5] (U266 MM line, solubilized ATRA) is “striking dose dependent increase in expression”; in series [5] (three MM cell lines (U266, H929 and L363)) it was “dose dependent increase”.
